Source: US11884676B2, “Substituted pyrimido[1,2-b]pyridazines as positive allosteric modulators of the muscarinic acetylcholine receptor M4” (Vanderbilt University, priority 2020, dated 2024)
pEC50: −log10 of the molar value.

Target: T1, Human M4 (Homo sapiens, UniProt P08173)
T1 construct: expressed in transfected cells
T1 sequence (P08173 1-479): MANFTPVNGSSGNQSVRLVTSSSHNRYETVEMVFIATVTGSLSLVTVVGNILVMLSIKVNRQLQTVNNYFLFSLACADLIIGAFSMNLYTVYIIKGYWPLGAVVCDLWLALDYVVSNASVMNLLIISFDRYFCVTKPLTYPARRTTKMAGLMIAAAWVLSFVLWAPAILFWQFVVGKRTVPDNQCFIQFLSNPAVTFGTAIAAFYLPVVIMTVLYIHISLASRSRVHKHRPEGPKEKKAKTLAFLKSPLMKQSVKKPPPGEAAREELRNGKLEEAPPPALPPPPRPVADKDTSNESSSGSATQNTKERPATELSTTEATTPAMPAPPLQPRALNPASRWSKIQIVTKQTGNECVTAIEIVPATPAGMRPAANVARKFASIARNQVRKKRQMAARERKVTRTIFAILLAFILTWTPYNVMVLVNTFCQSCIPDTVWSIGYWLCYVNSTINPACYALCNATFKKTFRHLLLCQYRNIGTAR
Experiment: mAChR M4 cell-based functional assay (calcium flux, PAM mode)
Parameters: Emax: dose or concentration left out as unconfirmed
Details: for Emax at 30 µM: CHO-K1, % ACh maximum at 30 μM; for Emax at 30 µM / pEC50: hM4-Gqi5 CHO-K1 cells; for pEC50: concentration-dependent increase in the EC20 acetylcholine response
Experimental: Human and rat M4 cDNAs, along with the chimeric G protein Gqi5, were transfected into Chinese hamster ovary (CHO-K1) cells purchased from the American Type Culture Collection using Lipofectamine2000. hM4-Gqi5 cells were grown in Ham's F-12 medium containing 10% heat-inactivated fetal bovine serum (FBS), 20 mM HEPES, 50 μg/mL G418 sulfate, and 500 μg/mL Hygromycin B. rM4-Gqi5 cells were grown in DMEM containing 10% heat-inactivated FBS, 20 mM HEPES, 400 μg/mL G418 sulfate, and 500 μg/mL Hygromycin B.
For high throughput measurement of agonist-evoked increases in intracellular calcium, CHO-K1 cells stably expressing muscarinic receptors were plated in growth medium lacking G418 and hygromycin at 15,000 cells/20 μL/well in Greiner 384-well black-walled, tissue culture (TC)-treated, clear-bottom plates (VWR). Cells were incubated overnight at 37° C. and 5% CO2. The next day, cells were washed using an ELX 405 (BioTek) with assay buffer; the final volume was then aspirated to 20 μL. Next, 20 μL of a 2.3 μM stock of Fluo-4/acetoxymethyl ester (Invitrogen, Carlsbad, CA), prepared as a 2.3 mM stock in DMSO and mixed in a 1:1 ratio with 10% (w/v) Pluronic F-127 and diluted in assay buffer, was added to the wells and the cell plates were incubated for 50 min at 37° C. and 5% CO2. Dye was removed by washing with the ELX 405 and the final volume was aspirated to 20 μL. Compound master plates were formatted in an 11 point concentration-response curve (CRC) format (1:3 dilutions) in 100% DMSO with a starting concentration of 10 mM using a BRAVO liquid handler (Agilent). Test compound CRCs were then transferred to daughter plates (240 nL) using the Echo acoustic plate reformatter (Labcyte, Sunnyvale, CA) and then diluted into assay buffer (40 μL) to a 2× stock using a Thermo Fisher Combi (Thermo Fisher Scientific, Waltham, MA).
Calcium flux was measured using the Functional Drug Screening System (FDSS) 6000 or 7000 (Hamamatsu Corporation, Tokyo, Japan) as an increase in the fluorescent static ratio. Compounds were applied to cells (20 μL, 2×) using the automated system of the FDSS at 2-4 seconds into the protocol and the data were collected at 1 Hz. At 144 seconds, 10 μL of an EC20 concentration of the muscarinic receptor agonist acetylcholine was added (5×), followed by the addition of 12 μL of an EC80 concentration of acetylcholine at the 230 second time point (5×). Agonist activity was analyzed as a concentration-dependent increase in calcium mobilization upon compound addition. Positive allosteric modulator activity was analyzed as a concentration-dependent increase in the EC20 acetylcholine response. Antagonist activity was analyzed as a concentration-dependent decrease in the EC80 acetylcholine response. Concentration-response curves were generated using a four-parameter logistical equation in XLFit curve fitting software (IDBS, Bridgewater, NJ) for Excel (Microsoft, Redmond, WA) or Prism (GraphPad Software, Inc., San Diego, CA).
Compounds were synthesized as described above. Activity (EC50 and Emax) was determined in the mAChR M4 cell-based functional assay as described above and the data are shown in Table 2. The compound number corresponds to the compound numbers used in Examples 1 to 11 and Tables 1.

Row | Compound | Emax at 30 µM | pEC50 | Emax (CHO-K1, read-out: Human M4 Emax (%)*)
1 | [2H]C1([2H])Oc2ccc(O[C@H]3CCN(c4nn5c(=O)ccnc5c(C)c4C)C[C@H]3F)cc2OC1([2H])[2H] [Compound 119, 7-((3R,4S)-4-((2,3-dihydrobenzo[b][1,4]dioxin-6-yl-2,2,3,3-d4)oxy)-3-fluoropiperidin-1-yl)-8,9-dimethyl-4H-pyrimido[1,2-b]pyridazin-4-one] | 114% | 7.29 | 
2 | Cc1cc2nccc(=O)n2nc1N1CCC(Oc2cc(F)c3c(c2)OCCO3)CC1 [Compound 135, 7-(4-((8-fluoro-2,3-dihydrobenzo[b][1,4]dioxin-6-yl)oxy)piperidin-1-yl)-8-methyl-4H-pyrimido[1,2-b]pyridazin-4-one] | 98% | 7.12 | 
3 | [2H]C1([2H])Oc2ccc(OC3CCN(c4nn5c(=O)c(N6CCC6)cnc5cc4C)CC3)cc2OC1([2H])[2H] [Compound 35, 3-(azetidin-1-yl)-7-(4-((2,3-dihydrobenzo[b][1,4]dioxin-6-yl-2,2,3,3-d4)oxy)piperidin-1-yl)-8-methyl-4H-pyrimido[1,2-b]pyridazin-4-one] | 114% | 6.82 | 
4 | CNc1c(C)c(N2CCC(Oc3ccc4c(c3)OCCO4)CC2)nn2c(=O)ccnc12 [Compound 123, 7-(4-((2,3-dihydrobenzo[b][1,4]dioxin-6-yl)oxy)piperidin-1-yl)-8-methyl-9-(methylamino)-4H-pyrimido[1,2-b]pyridazin-4-one] | 89% | 6.25 | 
5 | Cc1cc(=O)n2nc(N3CC[C@H](Oc4ccc5c(c4)OCCO5)[C@H](F)C3)c(C)cc2n1 [Compound 44, 7-((3R,4S)-4-((2,3-dihydrobenzo[b][1,4]dioxin-6-yl)oxy)-3-fluoropiperidin-1-yl)-2,8-dimethyl-4H-pyrimido[1,2-b]pyridazin-4-one] | 79% | 6.65 | 
6 | [2H]C1([2H])Oc2ccc(OC3CCN(c4nn5c(=O)ccnc5c(C)c4C4CC4)CC3)cc2OC1([2H])[2H] [Compound 105, 8-cyclopropyl-7-(4-((2,3-dihydrobenzo[b][1,4]dioxin-6-yl-2,2,3,3-d4)oxy)piperidin-1-yl)-9-methyl-4H-pyrimido[1,2-b]pyridazin-4-one] | 81% | 5.77 | 
7 | [2H]C1([2H])Oc2ccc(OC3CCN(c4nn5c(=O)cc(CC)nc5c(C)c4C)CC3)cc2OC1([2H])[2H] [Compound 100, 7-(4-((2,3-dihydrobenzo[b][1,4]dioxin-6-yl-2,2,3,3-d4)oxy)piperidin-1-yl)-2-ethyl-8,9-dimethyl-4H-pyrimido[1,2-b]pyridazin-4-one] | 89% | 7.28 | 
8 | [2H]C1(Oc2ccc3c(c2)OCO3)CCN(c2nn3c(=O)cc(C)nc3cc2C)CC1 [Compound 58, 7-(4-(benzo[d][1,3]dioxol-5-yloxy)piperidin-1-yl-4-d)-2,8-dimethyl-4H-pyrimido[1,2-b]pyridazin-4-one] | 88% | 7.28 | 
9 | [2H]C1([2H])Oc2ccc(OC3CCN(c4nn5c(=O)ccnc5cc4C)CC3)cc2OC1([2H])[2H] [Compound 1, 7-(4-((2,3-Dihydrobenzo[b][1,4]dioxin-6-yl-2,2,3,3-d4)oxy)piperidin-1-yl)-8-methyl-4H-pyrimido[1,2-b]pyridazin-4-one] | 91% | 6.89 | 
10 | Cc1cc2nccc(=O)n2nc1N1CC[C@H](Oc2cc(F)c3c(c2)OCCO3)C[C@H]1C [Compound 131, 7-((2R,4S)-4-((8-fluoro-2,3-dihydrobenzo[b][1,4]dioxin-6-yl)oxy)-2-methylpiperidin-1-yl)-8-methyl-4H-pyrimido[1,2-b]pyridazin-4-one] | 119% | 6.69 | 
11 | [2H]C1(Oc2ccc3c(c2)OC([2H])([2H])C([2H])([2H])O3)CCN(c2nn3c(=O)cc(C)nc3cc2C)CC1 [Compound 40, 7-(4-((2,3-dihydrobenzo[b][1,4]dioxin-6-yl-2,2,3,3-d4)oxy)piperidin-1-yl-4-d)-2,8-dimethyl-4H-pyrimido[1,2-b]pyridazin-4-one] | 118% | 7.22 | 
12 | [2H]C1([2H])Oc2ccc(O[C@@H]3CCN(c4nn5c(=O)cc(COC)nc5c(C)c4C)C[C@H]3F)cc2OC1([2H])[2H] [Compound 124, 7-((3R,4R)-4-((2,3-dihydrobenzo[b][1,4]dioxin-6-yl-2,2,3,3-d4)oxy)-3-fluoropiperidin-1-yl)-2-(methoxymethyl)-8,9-dimethyl-4H-pyrimido[1,2-b]pyridazin-4-one] | 109% | 7.00 | 
13 | CCc1cc(=O)n2nc(N3CCC(Oc4ccc5c(c4)OCCO5)CC3)c(C)c(C)c2n1 [Compound 11, 7-(4-((2,3-Dihydrobenzo[b][1,4]dioxin-6-yl-2,2,3,3-d4)oxy)piperidin-1-yl)-2-ethyl-8,9-dimethyl-4H-pyrimido[1,2-b]pyridazin-4-one] | 99% | 7.31 | 
14 | Cc1c(N2CCC(Oc3ccc(Cl)cc3)CC2)nn2c(=O)ccnc2c1C [Compound 87] |  | 6.57 | 93%
15 | [2H]C1(Oc2ccc3c(c2)OCO3)CCN(c2nn3c(=O)cc(C(F)F)nc3cc2C)CC1 [Compound 66, 7-(4-(benzo[d][1,3]dioxol-5-yloxy)piperidin-1-yl-4-d)-2-(difluoromethyl)-8-methyl-4H-pyrimido[1,2-b]pyridazin-4-one] | 108% | 7.77 | 
16 | [2H]C1([2H])Oc2ccc(O[C@@H]3CCN(c4nn5c(=O)ccnc5c(C)c4C)C[C@@H]3F)cc2OC1([2H])[2H] [Compound 118, 7-((3S,4R)-4-((2,3-dihydrobenzo[b][1,4]dioxin-6-yl-2,2,3,3-d4)oxy)-3-fluoropiperidin-1-yl)-8,9-dimethyl-4H-pyrimido[1,2-b]pyridazin-4-one] | 115% | 7.47 | 
17 | [2H]C1(Oc2ccc3c(c2)OCO3)CCN(c2nn3c(=O)cc(C(F)(F)F)nc3cc2C)CC1 [Compound 63, 7-(4-(benzo[d][1,3]dioxol-5-yloxy)piperidin-1-yl-4-d)-8-methyl-2-(trifluoromethyl)-4H-pyrimido[1,2-b]pyridazin-4-one] | 102% | 6.47 | 
18 | [2H]C1(Oc2ccc3c(c2)OC([2H])([2H])C([2H])([2H])O3)CCN(c2nn3c(=O)c(C)c(C)nc3cc2C)CC1 [Compound 47, 7-(4-((2,3-dihydrobenzo[b][1,4]dioxin-6-yl-2,2,3,3-d4)oxy)piperidin-1-yl-4-d)-2,3,8-trimethyl-4H-pyrimido[1,2-b]pyridazin-4-one] | 81% | 7.29 | 
19 | Cc1cc2nccc(=O)n2nc1N1CC[C@@H](Oc2ccc3c(c2)OCO3)[C@H](F)C1 [Compound 53, 7-((3R,4R)-4-(benzo[d][1,3]dioxol-5-yloxy)-3-fluoropiperidin-1-yl)-8-methyl-4H-pyrimido[1,2-b]pyridazin-4-one] | 86% | 6.80 | 
20 | Cc1c(N2CCC(Oc3ccc(Cl)cc3)CC2)nn2c(=O)cc(C(F)F)nc2c1C [Compound 79, 7-(4-(4-chlorophenoxy)piperidin-1-yl)-2-(difluoromethyl)-8,9-dimethyl-4H-pyrimido[1,2-b]pyridazin-4-one] | 76% | 6.45 | 
